{"source": "PubChem BioAssay (NCI)", "assay_in_all_cases": "NCI tumour cell line growth inhibition, 384-well format", "key": {"RXF 393 renal": {"test_system": "RXF 393 renal"}, "CCRF-CEM leukemia": {"test_system": "CCRF-CEM leukemia"}, "IGROV1 ovarian": {"test_system": "IGROV1 ovarian"}, "MDA-MB-435 melanoma": {"test_system": "MDA-MB-435 melanoma"}, "OVCAR-5 ovarian": {"test_system": "OVCAR-5 ovarian"}, "KM12 colon": {"test_system": "KM12 colon"}, "HCC-2998 colon": {"test_system": "HCC-2998 colon"}, "NCI-H226 lung": {"test_system": "NCI-H226 lung"}, "T-47D breast": {"test_system": "T-47D breast"}, "BT-549 breast": {"test_system": "BT-549 breast"}, "SW-620 colon": {"test_system": "SW-620 colon"}, "HOP-62 NSCLC": {"test_system": "HOP-62 NSCLC"}, "OVCAR-4 ovarian": {"test_system": "OVCAR-4 ovarian"}, "786-0 renal": {"test_system": "786-0 renal"}, "ACHN renal": {"test_system": "ACHN renal"}, "SF-268 CNS": {"test_system": "SF-268 CNS"}, "NCI-H522 lung": {"test_system": "NCI-H522 lung"}, "SK-MEL-5 melanoma": {"test_system": "SK-MEL-5 melanoma"}, "COLO 205 colon": {"test_system": "COLO 205 colon"}, "MALME-3M melanoma": {"test_system": "MALME-3M melanoma"}, "MDA-MB-231 breast": {"test_system": "MDA-MB-231 breast"}, "HS 578T breast": {"test_system": "HS 578T breast"}, "OVCAR-3 ovarian": {"test_system": "OVCAR-3 ovarian"}, "RPMI-8226 leukemia": {"test_system": "RPMI-8226 leukemia"}, "UACC-257 melanoma": {"test_system": "UACC-257 melanoma"}, "SNB-75 CNS": {"test_system": "SNB-75 CNS"}, "LOX IMVI melanoma": {"test_system": "LOX IMVI melanoma"}, "DU-145 prostate": {"test_system": "DU-145 prostate"}, "SK-OV-3 ovarian": {"test_system": "SK-OV-3 ovarian"}, "MCF7 breast": {"test_system": "MCF7 breast"}}, "note": "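GI50 = concentration required for 50% inhibition of growth. TGI: total growth inhibition.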"}
{"smiles": "CC1(C)CNc2cc(NC(=O)c3cccnc3NCc3ccncc3)ccc21", "values": [{"measurement": "GI50", "setting": "RXF 393 renal", "value": 11, "unit": "µM"}, {"measurement": "TGI", "setting": "RXF 393 renal", "value": 29.6, "unit": "µM"}, {"measurement": "GI50", "setting": "CCRF-CEM leukemia", "value": 12.7, "unit": "µM"}, {"measurement": "TGI", "setting": "CCRF-CEM leukemia", "value": 27.6, "unit": "µM"}, {"measurement": "GI50", "setting": "IGROV1 ovarian", "value": 12.5, "unit": "µM"}, {"measurement": "TGI", "setting": "IGROV1 ovarian", "value": 40.3, "unit": "µM"}, {"measurement": "GI50", "setting": "MDA-MB-435 melanoma", "value": 29.4, "unit": "µM"}, {"measurement": "TGI", "setting": "MDA-MB-435 melanoma", "value": 98.4, "unit": "µM"}, {"measurement": "GI50", "setting": "OVCAR-5 ovarian", "value": 52.9, "unit": "µM"}, {"measurement": "TGI", "setting": "OVCAR-5 ovarian", "value": "> 100", "unit": "µM"}, {"measurement": "GI50", "setting": "KM12 colon", "value": 38.8, "unit": "µM"}, {"measurement": "TGI", "setting": "KM12 colon", "value": "> 100", "unit": "µM"}, {"measurement": "GI50", "setting": "HCC-2998 colon", "value": 38, "unit": "µM"}, {"measurement": "TGI", "setting": "HCC-2998 colon", "value": "> 100", "unit": "µM"}, {"measurement": "GI50", "setting": "NCI-H226 lung", "value": 9.96, "unit": "µM"}, {"measurement": "TGI", "setting": "NCI-H226 lung", "value": 31.4, "unit": "µM"}, {"measurement": "GI50", "setting": "T-47D breast", "value": 14.9, "unit": "µM"}, {"measurement": "TGI", "setting": "T-47D breast", "value": 47.3, "unit": "µM"}, {"measurement": "GI50", "setting": "BT-549 breast", "value": 26.1, "unit": "µM"}, {"measurement": "TGI", "setting": "BT-549 breast", "value": 65.5, "unit": "µM"}, {"measurement": "GI50", "setting": "SW-620 colon", "value": 49.6, "unit": "µM"}, {"measurement": "TGI", "setting": "SW-620 colon", "value": "> 100", "unit": "µM"}, {"measurement": "GI50", "setting": "HOP-62 NSCLC", "value": 70.9, "unit": "µM"}, {"measurement": "TGI", "setting": "HOP-62 NSCLC", "value": "> 100", "unit": "µM"}, {"measurement": "GI50", "setting": "OVCAR-4 ovarian", "value": 13.7, "unit": "µM"}, {"measurement": "TGI", "setting": "OVCAR-4 ovarian", "value": 60.6, "unit": "µM"}, {"measurement": "GI50", "setting": "786-0 renal", "value": 35.8, "unit": "µM"}, {"measurement": "TGI", "setting": "786-0 renal", "value": "> 100", "unit": "µM"}, {"measurement": "GI50", "setting": "ACHN renal", "value": 10.7, "unit": "µM"}, {"measurement": "TGI", "setting": "ACHN renal", "value": 64.5, "unit": "µM"}, {"measurement": "GI50", "setting": "SF-268 CNS", "value": 25.2, "unit": "µM"}, {"measurement": "TGI", "setting": "SF-268 CNS", "value": 88.9, "unit": "µM"}, {"measurement": "GI50", "setting": "NCI-H522 lung", "value": 20.4, "unit": "µM"}, {"measurement": "TGI", "setting": "NCI-H522 lung", "value": 50.2, "unit": "µM"}, {"measurement": "GI50", "setting": "SK-MEL-5 melanoma", "value": 13.1, "unit": "µM"}, {"measurement": "TGI", "setting": "SK-MEL-5 melanoma", "value": 28.3, "unit": "µM"}, {"measurement": "GI50", "setting": "COLO 205 colon", "value": 31.6, "unit": "µM"}, {"measurement": "TGI", "setting": "COLO 205 colon", "value": "> 100", "unit": "µM"}, {"measurement": "GI50", "setting": "MALME-3M melanoma", "value": 20.1, "unit": "µM"}, {"measurement": "TGI", "setting": "MALME-3M melanoma", "value": 66.5, "unit": "µM"}, {"measurement": "GI50", "setting": "MDA-MB-231 breast", "value": 24.5, "unit": "µM"}, {"measurement": "TGI", "setting": "MDA-MB-231 breast", "value": 82, "unit": "µM"}, {"measurement": "GI50", "setting": "HS 578T breast", "value": 15.8, "unit": "µM"}, {"measurement": "TGI", "setting": "HS 578T breast", "value": 40.5, "unit": "µM"}, {"measurement": "GI50", "setting": "OVCAR-3 ovarian", "value": 14.8, "unit": "µM"}, {"measurement": "TGI", "setting": "OVCAR-3 ovarian", "value": 40.6, "unit": "µM"}, {"measurement": "GI50", "setting": "RPMI-8226 leukemia", "value": 16, "unit": "µM"}, {"measurement": "TGI", "setting": "RPMI-8226 leukemia", "value": 41.6, "unit": "µM"}, {"measurement": "GI50", "setting": "UACC-257 melanoma", "value": 30.9, "unit": "µM"}, {"measurement": "TGI", "setting": "UACC-257 melanoma", "value": "> 100", "unit": "µM"}, {"measurement": "GI50", "setting": "SNB-75 CNS", "value": 22.1, "unit": "µM"}, {"measurement": "TGI", "setting": "SNB-75 CNS", "value": 80.9, "unit": "µM"}, {"measurement": "GI50", "setting": "LOX IMVI melanoma", "value": 24.9, "unit": "µM"}, {"measurement": "TGI", "setting": "LOX IMVI melanoma", "value": 52.5, "unit": "µM"}, {"measurement": "GI50", "setting": "DU-145 prostate", "value": 21.3, "unit": "µM"}, {"measurement": "TGI", "setting": "DU-145 prostate", "value": "> 100", "unit": "µM"}, {"measurement": "GI50", "setting": "SK-OV-3 ovarian", "value": 18.6, "unit": "µM"}, {"measurement": "TGI", "setting": "SK-OV-3 ovarian", "value": 61.4, "unit": "µM"}, {"measurement": "GI50", "setting": "MCF7 breast", "value": 23.3, "unit": "µM"}]}
